From US20120101100A1 (priority 2008, published 2012)

biological target: S. aureus GyrB ATPase (Staphylococcus aureus, UniProt P0A0K8); assay: S. aureus (SAU) GyrB ATPase inhibition, malachite green phosphate detection (E. coli GyrA + S. aureus GyrB); assay type: biochemical; conditions: compound concentration of 1.0 μM unless otherwise noted; average value where assay was carried out more than once; read-out: S. aureus (SAU) GyrB ATPase % Inhibition
Outline: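 E. coli GyrA and S. aureus GyrB (1.25 nM each) with 500 μM ATP and 5 μg/ml sheared salmon sperm DNA in 50 mM Hepes pH 7.5, 8.0 mM MgCl2. Released phosphate detected with ammonium molybdate/malachite green at 650 nm; 2% DMSO as 0% and 2 μM novobiocin as 100% inhibition; IC50 from 10 concentrations.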

Sequence of S. aureus GyrB ATPase (P0A0K8 whole entry): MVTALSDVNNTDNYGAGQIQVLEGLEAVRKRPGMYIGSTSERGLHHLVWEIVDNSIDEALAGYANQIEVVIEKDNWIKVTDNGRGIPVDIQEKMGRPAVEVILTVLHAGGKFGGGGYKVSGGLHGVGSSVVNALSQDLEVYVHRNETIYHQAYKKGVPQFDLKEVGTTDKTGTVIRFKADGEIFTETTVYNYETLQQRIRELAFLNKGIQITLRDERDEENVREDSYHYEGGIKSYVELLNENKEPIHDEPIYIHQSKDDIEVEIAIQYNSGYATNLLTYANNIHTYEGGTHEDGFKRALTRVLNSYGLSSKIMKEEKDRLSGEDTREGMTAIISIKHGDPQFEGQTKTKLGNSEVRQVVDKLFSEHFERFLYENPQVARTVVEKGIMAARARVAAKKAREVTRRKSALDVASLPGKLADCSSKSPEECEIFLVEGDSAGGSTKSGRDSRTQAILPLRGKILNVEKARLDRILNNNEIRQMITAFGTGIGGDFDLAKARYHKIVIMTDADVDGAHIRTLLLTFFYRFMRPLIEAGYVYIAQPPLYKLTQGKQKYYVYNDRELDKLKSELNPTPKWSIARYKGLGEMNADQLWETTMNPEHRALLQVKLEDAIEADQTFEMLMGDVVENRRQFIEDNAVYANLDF
Sequence of S. aureus GyrB ATPase (P0AES4 whole entry, further chain): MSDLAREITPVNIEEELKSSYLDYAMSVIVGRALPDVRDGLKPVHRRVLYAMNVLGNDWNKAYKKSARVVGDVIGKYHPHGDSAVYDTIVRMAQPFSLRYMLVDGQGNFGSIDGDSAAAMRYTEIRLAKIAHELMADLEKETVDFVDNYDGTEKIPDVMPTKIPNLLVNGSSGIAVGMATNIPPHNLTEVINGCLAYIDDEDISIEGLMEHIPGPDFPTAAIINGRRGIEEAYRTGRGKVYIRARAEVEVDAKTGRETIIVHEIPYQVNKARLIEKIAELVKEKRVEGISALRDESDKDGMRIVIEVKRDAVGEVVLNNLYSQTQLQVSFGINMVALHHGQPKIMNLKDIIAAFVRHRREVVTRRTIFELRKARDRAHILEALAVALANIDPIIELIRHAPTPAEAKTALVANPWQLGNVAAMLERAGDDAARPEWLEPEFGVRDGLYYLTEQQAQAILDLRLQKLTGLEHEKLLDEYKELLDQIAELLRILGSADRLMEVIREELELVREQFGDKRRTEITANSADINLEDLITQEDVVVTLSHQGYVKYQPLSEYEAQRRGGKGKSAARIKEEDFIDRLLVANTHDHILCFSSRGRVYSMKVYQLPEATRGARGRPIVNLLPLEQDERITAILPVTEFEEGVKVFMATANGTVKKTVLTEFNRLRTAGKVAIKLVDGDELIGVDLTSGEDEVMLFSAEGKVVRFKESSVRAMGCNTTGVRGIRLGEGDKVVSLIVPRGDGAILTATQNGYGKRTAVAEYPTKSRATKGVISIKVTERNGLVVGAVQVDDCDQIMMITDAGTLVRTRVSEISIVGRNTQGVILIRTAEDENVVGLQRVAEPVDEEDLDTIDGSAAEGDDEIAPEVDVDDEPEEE

Q: Which inhibition at 1 µM does the source give for CCNC(=O)Nc1cc(-c2nc(C(F)(F)F)cs2)c(-c2cc(-c3n[nH]c(=O)o3)cnc2OCCC(=O)O)cn1 [Example 111, 3-({6′-[(ethylcarbamoyl)amino]-5-(5-oxo-4,5-dihydro-1,3,4-oxadiazol-2-yl)-4′-[4-(trifluoromethyl)-1,3-thiazol-2-yl]-3,3′-bipyridin-2-yl}oxy)propanoic acid] here?
A: 106%

Q: How did the inhibition at 1 µM turn out when O=C(NCC(F)F)Nc1cc(-c2nc(C(F)(F)F)cs2)c(-c2cncc(-c3n[nH]c(=O)o3)c2)cn1 [Example 50, 1-(2,2-difluoroethyl)-3-(5′-(5-oxo-4,5-dihydro-1,3,4-oxadiazol-2-yl)-4-(4-(trifluoromethyl)thiazol-2-yl)-3,3′-bipyridin-6-yl)urea] was run?
A: 105%

Q: Which inhibition at 1 µM does the source give for CCNC(=O)Nc1cc(-c2nc(C(F)(F)F)cs2)c(-c2cc(OCCN(C)C)nc(-c3n[nH]c(=O)o3)c2)cn1 [Example 92, 1-(2′-(2-(dimethylamino)ethoxy)-6′-(5-oxo-4,5-dihydro-1,3,4-oxadiazol-2-yl)-4-(4-(trifluoromethyl)thiazol-2-yl)-3,4′-bipyridin-6-yl)-3-ethylurea] here?
A: 104%

Q: How did the inhibition at 1 µM turn out when CCNC(=O)Nc1cc(-c2nnc(-c3ccccc3)o2)c(-c2ncc(-c3nnc(C)o3)s2)cn1 [Example 230] was run?
A: 91%

Q: Which inhibition at 1 µM does the source give for CCNC(=O)Nc1cc(-c2nnc(-c3ccccc3)o2)c(-c2ccnc(-c3nnc(C)o3)c2)cn1 [Example 229] here?
A: 99%

Q: How did the inhibition at 1 µM turn out when CCNC(=O)Nc1cc(-c2nc(-c3ccccn3)cs2)c(-c2ccnc(-c3n[nH]c(=O)o3)c2)cn1 [Example 106, 1-Ethyl-3-(2′-(5-oxo-4,5-dihydro-1,3,4-oxadiazol-2-yl)-4-(4-(pyridin-2-yl)thiazol-2-yl)-3,4′-bipyridin-6-yl)urea] was run?
A: 102%

Q: How did the inhibition at 1 µM turn out when CCNC(=O)Nc1cc(-c2nc(C(F)(F)F)cs2)c(-c2cncc(-c3nnc(C4(O)CC4)o3)c2)cn1 [Example 273, 1-ethyl-3-(5′-(5-(1-hydroxycyclopropyl)-1,3,4-oxadiazol-2-yl)-4-(4-(trifluoromethyl)thiazol-2-yl)-3,3′-bipyridin-6-yl)urea] was run?
A: 98%

Q: CCNC(=O)Nc1cc(-c2ccnn2C)c(-c2cncc(-c3n[nH]c(=O)o3)c2)cn1 [Example 28, 1-ethyl-3-(4-(1-methyl-1H-pyrazol-5-yl)-5′-(5-oxo-4,5-dihydro-1,3,4-oxadiazol-2-yl)-3,3′-bipyridin-6-yl)urea] was tested. Which inhibition at 1 µM did it give?
A: 70%

Q: Which inhibition at 1 µM does the source give for CCNC(=O)Nc1cc(-c2nc(C(F)(F)F)cs2)c(-c2cncc(-c3nnc(CN)o3)c2)cn1 [Example 281, 1-(5′-(5-(aminomethyl)-1,3,4-oxadiazol-2-yl)-4-(4-(trifluoromethyl)thiazol-2-yl)-3,3′-bipyridin-6-yl)-3-ethylurea] here?
A: 94%

Q: How did the inhibition at 1 µM turn out when CCNC(=O)Nc1cc(-c2nc(C(F)(F)F)cs2)c(-c2cncc(-c3nnc(N(CC)CC)o3)c2)cn1 [Example 267, 1-(5′-(5-(diethylamino)-1,3,4-oxadiazol-2-yl)-4-(4-(trifluoromethyl)thiazol-2-yl)-3,3′-bipyridin-6-yl)-3-ethylurea] was run?
A: 98%

Q: CCNC(=O)Nc1cc(-n2cc(C(F)(F)F)cn2)c(-c2cncc(-c3n[nH]c(=O)o3)c2)cn1 [Example 148] was tested. Which inhibition at 1 µM did it give?
A: 97%

Q: For CCNC(=O)Nc1cc(-c2nc(C(F)(F)F)cs2)c(-c2cncc(-c3nnco3)c2)cn1 [Example 272, 1-(5′-(1,3,4-oxadiazol-2-yl)-4-(4-(trifluoromethyl)thiazol-2-yl)-3,3′-bipyridin-6-yl)-3-ethylurea], which inhibition at 1 µM is on record?
A: 90%

Q: CCNC(=O)Nc1cc(-c2nc(C(F)(F)F)cs2)c(-c2cncc(-c3nc(C)n[nH]3)c2)cn1 [Example 7, 1-Ethyl-3-(5′-(3-methyl-1H-1,2,4-triazol-5-yl)-4-(4-(trifluoromethyl)thiazol-2-yl)-3,3′-bipyridin-6-yl)urea] was tested. Which inhibition at 1 µM did it give?
A: 90%

Q: For CCNC(=O)Nc1cc(-c2nc(-c3ccccc3)cs2)c(-c2ccc[n+]([O-])c2)cn1 [Example 130], which inhibition at 1 µM is on record?
A: 103%

Q: How did the inhibition at 1 µM turn out when CCCNC(=O)Nc1cc(-c2nc(C(F)(F)F)cs2)c(-c2ccnc(-c3nnc(O)o3)c2)cn1 [Example 175, 1-(2′-(5-hydroxy-1,3,4-oxadiazol-2-yl)-4-(4-(trifluoromethyl)thiazol-2-yl)-3,4′-bipyridin-6-yl)-3-propylurea] was run?
A: 93%

Q: Which inhibition at 1 µM does the source give for CCNC(=O)Nc1cc(-c2nc(C(F)(F)F)cs2)c(-c2cc(-c3n[nH]c(=O)o3)cnc2N)cn1 [Example 260, 1-(2′-amino-5′-(5-oxo-4,5-dihydro-1,3,4-oxadiazol-2-yl)-4-(4-(trifluoromethyl)thiazol-2-yl)-3,3′-bipyridin-6-yl)-3-ethylurea] here?
A: 96%

Q: Which inhibition at 1 µM does the source give for CCNC(=O)Nc1cc(-c2nc(C(F)(F)F)cs2)c(-c2cncc(-c3nnc(C(F)(F)F)[nH]3)c2)cn1 [Example 257, 1-ethyl-3-(5′-(5-(trifluoromethyl)-4H-1,2,4-triazol-3-yl)-4-(4-(trifluoromethyl)thiazol-2-yl)-3,3′-bipyridin-6-yl)urea] here?
A: 102%

Q: CCNC(=O)Nc1cc(-c2nc(C(F)(F)F)cs2)c(-c2ccnc(-c3nnc([C@@H](NC)C(C)C)o3)c2)cn1 [Example 244, (S)-1-ethyl-3-(2′-(5-(2-methyl-1-(methylamino)propyl)-1,3,4-oxadiazol-2-yl)-4-(4-(trifluoromethyl)thiazol-2-yl)-3,4′-bipyridin-6-yl)urea] was tested. Which inhibition at 1 µM did it give?
A: 96%

Q: How did the inhibition at 1 µM turn out when CCNC(=O)Nc1cc(-c2nc(C(F)(F)F)cs2)c(-c2cncc(-c3nnc(C(C)(C)O)o3)c2)cn1 [Example 263, 1-ethyl-3-(5′-(5-(2-hydroxypropan-2-yl)-1,3,4-oxadiazol-2-yl)-4-(4-(trifluoromethyl)thiazol-2-yl)-3,3′-bipyridin-6-yl)urea] was run?
A: 100%

Q: For CCNC(=O)Nc1cc(-c2nc(C(F)(F)F)cs2)c(-c2cncc(-c3nnc(N4CC(O)C4)o3)c2)cn1 [Example 182], which inhibition at 1 µM is on record?
A: 99%

Q: With CCNC(=O)Nc1cc(-c2nc(C(F)(F)F)cs2)c(-c2cc(-c3nnc(C)o3)cnc2OCCN(C(C)C)C(C)C)cn1 [Example 116, 1-(2′-(2-(diisopropylamino)ethoxy)-5′-(5-methyl-1,3,4-oxadiazol-2-yl)-4-(4(trifluoromethyl)thiazol-2-yl)-3,3′-bipyridin-6-yl)-3-ethylurea] as the compound, how does the inhibition at 1 µM read?
A: 90%

Q: Which inhibition at 1 µM does the source give for CCNC(=O)Nc1cc(-c2nc(C(F)(F)F)cs2)c(-c2cc(-c3n[nH]c(=O)o3)cnc2OCC2CCN(C)CC2)cn1 [Example 223] here?
A: 95%

Q: Which inhibition at 1 µM does the source give for O=C(NCC(F)(F)F)Nc1cc(-c2nc(C(F)(F)F)cs2)c(-c2cncc(-c3n[nH]c(=O)o3)c2)cn1 [Example 49, 1-(5′-(5-oxo-4,5-dihydro-1,3,4-oxadiazol-2-yl)-4-(4-(trifluoromethyl)thiazol-2-yl)-3,3′-bipyridin-6-yl)-3-(2,2,2-trifluoroethyl)urea] here?
A: 99%

Q: Which inhibition at 1 µM does the source give for CCNC(=O)Nc1cc(N2CCCC(C)(C)C2)c(-c2cncc(-c3n[nH]c(=O)o3)c2)cn1 [Example 151] here?
A: 97%

Q: With CCNC(=O)Nc1cc(-c2nc(C(F)(F)F)c(C)s2)c(-c2cnc(OC)c(-c3n[nH]c(=O)o3)c2)cn1 [Example 144] as the compound, how does the inhibition at 1 µM read?
A: 90%

Q: Which inhibition at 1 µM does the source give for CCNC(=O)Nc1cc(-c2nnc(-c3ccncc3)o2)c(-c2cncc(-c3n[nH]c(=O)o3)c2)cn1 [Example 38, 1-ethyl-3-(5′-(5-oxo-4,5-dihydro-1,3,4-oxadiazol-2-yl)-4-(5-(pyridin-4-yl)-1,3,4-oxadiazol-2-yl)-3,3′-bipyridin-6-yl)urea] here?
A: 108%

Q: How did the inhibition at 1 µM turn out when CCNC(=O)Nc1cc(-c2nc(C(F)(F)F)cs2)c(-c2cc[n+]([O-])c(-c3nnc(C)o3)c2)cn1 [Example 259, 6-(3-ethylureido)-2′-(5-methyl-1,3,4-oxadiazol-2-yl)-4-(4-(trifluoromethyl)thiazol-2-yl)-3,4′-bipyridine 1′-oxide] was run?
A: 95%

Q: CCNC(=O)Nc1cc(-c2nc(C(F)(F)F)c(C(=O)NC3CCCCC3)s2)c(-c2cncc(-c3n[nH]c(=O)o3)c2)cn1 [Example 69, N-cyclohexyl-2-(6-(3-ethylureido)-5′-(5-oxo-4,5-dihydro-1,3,4-oxadiazol-2-yl)-3,3′-bipyridin-4-yl)-4-(trifluoromethyl)thiazole-5-carboxamide] was tested. Which inhibition at 1 µM did it give?
A: 91%

Q: How did the inhibition at 1 µM turn out when CCNC(=O)Nc1cc(-c2nc(C(F)(F)F)cs2)c(-c2cncc(-c3nnc([C@H](C)O)o3)c2)cn1 [Example 237, (S)-1-ethyl-3-(5′-(5-(1-hydroxyethyl)-1,3,4-oxadiazol-2-yl)-4-(4-(trifluoromethyl)thiazol-2-yl)-3,3′-bipyridin-6-yl)urea] was run?
A: 110%

Q: Which inhibition at 1 µM does the source give for CCNC(=O)Nc1cc(-c2nc(C(F)(F)F)c(C(=O)NC3CC3)s2)c(-c2cncc(-c3nnc(C)o3)c2)cn1 [Example 66, N-cyclopropyl-2-(6-(3-ethylureido)-5′-(5-methyl-1,3,4-oxadiazol-2-yl)-3,3′-bipyridin-4-yl)-4-(trifluoromethyl)thiazole-5-carboxamide] here?
A: 93%

Q: How did the inhibition at 1 µM turn out when CCNC(=O)Nc1cc(-c2nc(C(F)(F)F)cs2)c(-c2csc(N3CCOCC3)n2)cn1 [Example 30, 1-ethyl-3-(5-(2-morpholinothiazol-4-yl)-4-(4-(trifluoromethyl)thiazol-2-yl)pyridin-2-yl)urea] was run?
A: 105%

Q: For CCNC(=O)Nc1cc(-c2nc(C(F)(F)F)cs2)c(-c2cncc(-c3n[nH]c(=O)o3)c2)cn1 [Example 6, 1-ethyl-3-(5′-(5-oxo-4,5-dihydro-1,3,4-oxadiazol-2-yl)-4-(4-(trifluoromethyl)thiazol-2-yl)-3,3′-bipyridin-6-yl)urea], which inhibition at 1 µM is on record?
A: 106%

Q: For CCNC(=O)Nc1cc(-c2nc(C(F)(F)F)cs2)c(-c2cc(OCC3CC3)nc(-c3n[nH]c(=O)o3)c2)cn1 [Example 83, 1-(2′-(cyclopropylmethoxy)-6′-(5-oxo-4,5-dihydro-1,3,4-oxadiazol-2-yl)-4-(4-(trifluoromethyl)thiazol-2-yl)-3,4′-bipyridin-6-yl)-3-ethylurea], which inhibition at 1 µM is on record?
A: 94%
